From patent US20200254065A1, “LONG-ACTING GLP-2 ANALOGS” (OPKO Biologics Ltd., priority 2019, published 2020)
Values belong to the molecule of their own block, whether it stands above or below them. Square brackets hold non-standard residues; d marks the D form. Ends that are not written are not given here. Peptide text beside a SMILES is read from it. Nle = CCCC[C@H](N)C(=O)O

Key:
[1] = Stability of GLP-2 analogues on incubation at 37° C. (appearance, O.D. reading, RP-HPLC); type: physicochemical; conditions: following 48 h incubation at 37° C.; for Stability via RP-HPLC main peak: change of main peak
Protocol: The GLP-2 analogues were tested for stability via appearance, O.D. reading (A.280, and A.325) and RP-HPLC (purity, and peak area) following t=0, 1 day, and 48 h incubation at 37° C.

[2] = target: T1, GLP-2 receptor (Homo sapiens, UniProt O95838); test: GLP-2 receptor Cell Based Assay (CBA)
T1 sequence (O95838 1-553): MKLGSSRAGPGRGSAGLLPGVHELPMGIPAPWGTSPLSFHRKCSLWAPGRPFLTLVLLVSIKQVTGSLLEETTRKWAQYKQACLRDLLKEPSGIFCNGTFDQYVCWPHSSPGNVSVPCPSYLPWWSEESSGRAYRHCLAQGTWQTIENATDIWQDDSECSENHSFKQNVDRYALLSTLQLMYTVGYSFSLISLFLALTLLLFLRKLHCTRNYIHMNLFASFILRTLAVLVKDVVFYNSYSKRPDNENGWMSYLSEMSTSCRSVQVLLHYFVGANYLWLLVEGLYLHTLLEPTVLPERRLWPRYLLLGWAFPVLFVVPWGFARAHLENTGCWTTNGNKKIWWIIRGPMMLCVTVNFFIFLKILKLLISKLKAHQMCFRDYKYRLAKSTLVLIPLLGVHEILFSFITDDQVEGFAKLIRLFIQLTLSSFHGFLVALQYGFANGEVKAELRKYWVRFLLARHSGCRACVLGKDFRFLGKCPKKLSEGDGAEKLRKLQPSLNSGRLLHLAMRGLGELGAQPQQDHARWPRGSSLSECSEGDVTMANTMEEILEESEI
Protocol: Evaluation of in vitro binding affinity of the different peptides was assessed by using Cell Based Assay (CBA) in the presence of escalating doses of the different peptides.

[3] = target: T2, GLP-2 receptor (UniProt O95838 1-553, limits assumed); test: cell-based or functional assay
T2 sequence (looked up): T1 sequence (O95838 1-553)

[4] = Table 8, average of 3 independent CBA

Molecule: CCCC[C@H](NC(=O)[C@H](CCC(=O)O)NC(=O)[C@H](CC(=O)O)NC(=O)[C@H](CO)NC(=O)[C@H](Cc1ccccc1)NC(=O)[C@H](CO)NC(=O)CNC(=O)[C@H](CCC(=O)O)NC(=O)CNC(=O)[C@@H](N)Cc1c[nH]cn1)C(=O)N[C@H](Cc1ccccc1)C(=O)N[C@H](C(=O)N[C@H](C(=O)N[C@@H](CC(C)C)C(=O)N[C@@H](CC(=O)O)C(=O)N[C@@H](CC(C)C)C(=O)N[C@@H](CC(C)C)C(=O)N[C@@H](C)C(=O)N[C@@H](C)C(=O)N[C@@H](CCCNC(=N)N)C(=O)N[C@@H](CC(=O)O)C(=O)N[C@@H](Cc1ccccc1)C(=O)N[C@H](C(=O)N[C@@H](CC(N)=O)C(=O)N[C@@H](Cc1c[nH]c2ccccc12)C(=O)N[C@@H](CC(C)C)C(=O)N[C@H](C(=O)N[C@@H](CCC(N)=O)C(=O)N[C@H](C(=O)N[C@@H](CCCCN)C(=O)N[C@H](C(=O)N[C@H](C(=O)N[C@@H](CC(=O)O)C(N)=O)[C@@H](C)O)[C@@H](C)CC)[C@@H](C)O)[C@@H](C)CC)[C@@H](C)CC)[C@@H](C)CC)[C@@H](C)O [Variant 9] (H-HGEGSFSDE[Nle][dF]TILDLLAARDFINWLIQTKITD-NH2)
Solubility via appearance [1]: V9: clear
Stability via RP-HPLC main peak [1]: V9: −1.5%

B1: GLP-2 Variant #3 (peptide)
peptide: H-HGEGSFSDE[Nle][dH]TILDNLAARDFINWLIQTKITD-NH2
SMILES: CCCC[C@H](NC(=O)[C@H](CCC(=O)O)NC(=O)[C@H](CC(=O)O)NC(=O)[C@H](CO)NC(=O)[C@H](Cc1ccccc1)NC(=O)[C@H](CO)NC(=O)CNC(=O)[C@H](CCC(=O)O)NC(=O)CNC(=O)[C@@H](N)Cc1c[nH]cn1)C(=O)N[C@H](Cc1c[nH]cn1)C(=O)N[C@H](C(=O)N[C@H](C(=O)N[C@@H](CC(C)C)C(=O)N[C@@H](CC(=O)O)C(=O)N[C@@H](CC(N)=O)C(=O)N[C@@H](CC(C)C)C(=O)N[C@@H](C)C(=O)N[C@@H](C)C(=O)N[C@@H](CCCNC(=N)N)C(=O)N[C@@H](CC(=O)O)C(=O)N[C@@H](Cc1ccccc1)C(=O)N[C@H](C(=O)N[C@@H](CC(N)=O)C(=O)N[C@@H](Cc1c[nH]c2ccccc12)C(=O)N[C@@H](CC(C)C)C(=O)N[C@H](C(=O)N[C@@H](CCC(N)=O)C(=O)N[C@H](C(=O)N[C@@H](CCCCN)C(=O)N[C@H](C(=O)N[C@H](C(=O)N[C@@H](CC(=O)O)C(N)=O)[C@@H](C)O)[C@@H](C)CC)[C@@H](C)O)[C@@H](C)CC)[C@@H](C)CC)[C@@H](C)CC)[C@@H](C)O
EC50 Ratio to Teduglutide, CBA [3]: 2.5 fold
EC50 [nM], Cell Based Assay (CBA), cells overexpressing the GLP-2 receptor [3]: 14.2 nM

B4: GLP-2 Variant #6 (peptide)
peptide: H-HGEGSFSDE[Nle]NTILDLLAARDFINWLIQTKITD-OH
SMILES: CCCC[C@H](NC(=O)[C@H](CCC(=O)O)NC(=O)[C@H](CC(=O)O)NC(=O)[C@H](CO)NC(=O)[C@H](Cc1ccccc1)NC(=O)[C@H](CO)NC(=O)CNC(=O)[C@H](CCC(=O)O)NC(=O)CNC(=O)[C@@H](N)Cc1c[nH]cn1)C(=O)N[C@@H](CC(N)=O)C(=O)N[C@H](C(=O)N[C@H](C(=O)N[C@@H](CC(C)C)C(=O)N[C@@H](CC(=O)O)C(=O)N[C@@H](CC(C)C)C(=O)N[C@@H](CC(C)C)C(=O)N[C@@H](C)C(=O)N[C@@H](C)C(=O)N[C@@H](CCCNC(=N)N)C(=O)N[C@@H](CC(=O)O)C(=O)N[C@@H](Cc1ccccc1)C(=O)N[C@H](C(=O)N[C@@H](CC(N)=O)C(=O)N[C@@H](Cc1c[nH]c2ccccc12)C(=O)N[C@@H](CC(C)C)C(=O)N[C@H](C(=O)N[C@@H](CCC(N)=O)C(=O)N[C@H](C(=O)N[C@@H](CCCCN)C(=O)N[C@H](C(=O)N[C@H](C(=O)N[C@@H](CC(=O)O)C(=O)O)[C@@H](C)O)[C@@H](C)CC)[C@@H](C)O)[C@@H](C)CC)[C@@H](C)CC)[C@@H](C)CC)[C@@H](C)O
EC50 Ratio to Teduglutide, CBA [3]: 3.8 fold
EC50 [nM], Cell Based Assay (CBA), cells overexpressing the GLP-2 receptor [3]: 21.7 nM

The remaining lines, values ahead:

Solubility via appearance [1]: V2: opaque
Stability via RP-HPLC main peak [1]: V2: −30%
EC50 Ratio to Teduglutide ([2]; Table 7): 6.4
Molecule: CCCC[C@H](NC(=O)[C@H](CCC(=O)O)NC(=O)[C@H](CC(=O)O)NC(=O)[C@H](CO)NC(=O)[C@H](Cc1ccccc1)NC(=O)[C@H](CO)NC(=O)CNC(=O)[C@H](CCC(=O)O)NC(=O)CNC(=O)[C@@H](N)Cc1c[nH]cn1)C(=O)N[C@H](Cc1ccccc1)C(=O)N[C@H](C(=O)N[C@H](C(=O)N[C@@H](CC(C)C)C(=O)N[C@@H](CC(=O)O)C(=O)N[C@@H](CC(N)=O)C(=O)N[C@@H](CC(C)C)C(=O)N[C@@H](C)C(=O)N[C@@H](C)C(=O)N[C@@H](CCCNC(=N)N)C(=O)N[C@@H](CC(=O)O)C(=O)N[C@@H](Cc1ccccc1)C(=O)N[C@H](C(=O)N[C@@H](CC(N)=O)C(=O)N[C@@H](Cc1c[nH]c2ccccc12)C(=O)N[C@@H](CC(C)C)C(=O)N[C@H](C(=O)N[C@@H](CCC(N)=O)C(=O)N[C@H](C(=O)N[C@@H](CCCCN)C(=O)N[C@H](C(=O)N[C@H](C(=O)N[C@@H](CC(=O)O)C(N)=O)[C@@H](C)O)[C@@H](C)CC)[C@@H](C)O)[C@@H](C)CC)[C@@H](C)CC)[C@@H](C)CC)[C@@H](C)O [Variant 2] (H-HGEGSFSDE[Nle][dF]TILDNLAARDFINWLIQTKITD-NH2)

EC50 Ratio to Teduglutide [2, 4]: 9.4
EC50 Ratio to Variant 4 [2, 4]: 5.3
Molecule: H-HGEGTFSSELATILDALAARDFIAWLIATKITDKKKKKK-NH2 [Variant 10, NH2-HG^2E^3GT^5FSS^8EL^10A^11TILDA^16LAAR20DFIA^24WLIA^28TKITDK^34K^35K^36K^37K^38K^39- NH2, reference compound]

EC50 ([2]; EC50 (nM) Average, average of 3 independent CBA, different GLP-2R Assay Kit lot (Table 8)): 5.4 nM
Molecule: HGEGTFSSELATILDALAARDFIAWLIATKITDKKKKKK-NH2 [Variant 10, NH2-HG^2E^3GT^5FSS^8EL^10A^11TILDA^16LAAR20DFIA^24WLIA^28TKITDK^34K^35K^36K^37K^38K^39- NH2, reference compound]

EC50 Ratio to Teduglutide, CBA [3]: 3 fold
EC50 [nM], Cell Based Assay (CBA), cells overexpressing the GLP-2 receptor [3]: 17.2 nM
B2: GLP-2 Variant #7 (peptide)
peptide: H-HGEGSFSDE[Nle]NTILDYLAARDFINWLIQTKITD-OH
SMILES: CCCC[C@H](NC(=O)[C@H](CCC(=O)O)NC(=O)[C@H](CC(=O)O)NC(=O)[C@H](CO)NC(=O)[C@H](Cc1ccccc1)NC(=O)[C@H](CO)NC(=O)CNC(=O)[C@H](CCC(=O)O)NC(=O)CNC(=O)[C@@H](N)Cc1c[nH]cn1)C(=O)N[C@@H](CC(N)=O)C(=O)N[C@H](C(=O)N[C@H](C(=O)N[C@@H](CC(C)C)C(=O)N[C@@H](CC(=O)O)C(=O)N[C@@H](Cc1ccc(O)cc1)C(=O)N[C@@H](CC(C)C)C(=O)N[C@@H](C)C(=O)N[C@@H](C)C(=O)N[C@@H](CCCNC(=N)N)C(=O)N[C@@H](CC(=O)O)C(=O)N[C@@H](Cc1ccccc1)C(=O)N[C@H](C(=O)N[C@@H](CC(N)=O)C(=O)N[C@@H](Cc1c[nH]c2ccccc12)C(=O)N[C@@H](CC(C)C)C(=O)N[C@H](C(=O)N[C@@H](CCC(N)=O)C(=O)N[C@H](C(=O)N[C@@H](CCCCN)C(=O)N[C@H](C(=O)N[C@H](C(=O)N[C@@H](CC(=O)O)C(=O)O)[C@@H](C)O)[C@@H](C)CC)[C@@H](C)O)[C@@H](C)CC)[C@@H](C)CC)[C@@H](C)CC)[C@@H](C)O

EC50 Ratio to Teduglutide, CBA [3]: 6.4 fold
EC50 [nM], Cell Based Assay (CBA), cells overexpressing the GLP-2 receptor [3]: 36.1 nM
B3: GLP-2 Variant #2 (peptide)
peptide: H-HGEGSFSDE[Nle][dF]TILDNLAARDFINWLIQTKITD-NH2
SMILES: CCCC[C@H](NC(=O)[C@H](CCC(=O)O)NC(=O)[C@H](CC(=O)O)NC(=O)[C@H](CO)NC(=O)[C@H](Cc1ccccc1)NC(=O)[C@H](CO)NC(=O)CNC(=O)[C@H](CCC(=O)O)NC(=O)CNC(=O)[C@@H](N)Cc1c[nH]cn1)C(=O)N[C@H](Cc1ccccc1)C(=O)N[C@H](C(=O)N[C@H](C(=O)N[C@@H](CC(C)C)C(=O)N[C@@H](CC(=O)O)C(=O)N[C@@H](CC(N)=O)C(=O)N[C@@H](CC(C)C)C(=O)N[C@@H](C)C(=O)N[C@@H](C)C(=O)N[C@@H](CCCNC(=N)N)C(=O)N[C@@H](CC(=O)O)C(=O)N[C@@H](Cc1ccccc1)C(=O)N[C@H](C(=O)N[C@@H](CC(N)=O)C(=O)N[C@@H](Cc1c[nH]c2ccccc12)C(=O)N[C@@H](CC(C)C)C(=O)N[C@H](C(=O)N[C@@H](CCC(N)=O)C(=O)N[C@H](C(=O)N[C@@H](CCCCN)C(=O)N[C@H](C(=O)N[C@H](C(=O)N[C@@H](CC(=O)O)C(N)=O)[C@@H](C)O)[C@@H](C)CC)[C@@H](C)O)[C@@H](C)CC)[C@@H](C)CC)[C@@H](C)CC)[C@@H](C)O
